ChEMBL document CHEMBL4673406, “Discovery and Preclinical Evaluation of BMS-986242, a Potent, Selective Inhibitor of Indoleamine-2,3-dioxygenase 1” (ACS Med Chem Lett, 2021)

Legend:
[1] = Half life in rat at 0.5 mg/kg, iv; assay type: ADME, organism-based; conditions: in vivo
hERG = hERG (Homo sapiens, UniProt Q12809); assay: Inhibition of human ERG at 10 uM by patch clamp method relative to control
[2] = biological target: T1, Indoleamine 2,3-dioxygenase 1 (Homo sapiens, UniProt P14902); assay: Inhibition of IDO1 in IFNgamma-stimulated human HeLa cells preincubated for 2 hrs followed by IFNgamma stimulation and measured after 18 hrs by
T1 sequence (P14902 whole entry): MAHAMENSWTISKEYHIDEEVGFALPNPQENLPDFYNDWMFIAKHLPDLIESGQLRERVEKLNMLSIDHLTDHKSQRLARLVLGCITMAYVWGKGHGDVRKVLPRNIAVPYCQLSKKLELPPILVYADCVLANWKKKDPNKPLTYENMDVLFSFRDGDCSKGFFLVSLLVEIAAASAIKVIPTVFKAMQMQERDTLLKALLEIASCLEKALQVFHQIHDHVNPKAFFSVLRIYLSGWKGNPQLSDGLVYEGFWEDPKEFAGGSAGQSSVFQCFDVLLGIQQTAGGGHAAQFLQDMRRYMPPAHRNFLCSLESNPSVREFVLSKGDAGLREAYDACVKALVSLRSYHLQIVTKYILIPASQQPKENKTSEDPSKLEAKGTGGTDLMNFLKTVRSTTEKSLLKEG

[3] = Volume of distribution at steady state in dog at 1 mg/kg, iv; assay type: ADME, organism-based, Canis lupus familiaris; conditions: in vivo
[4] = Half life in mouse at 0.5 mg/kg, iv; assay type: ADME, organism-based; conditions: in vivo
Cytochrome P450 = Cytochrome P450 (Homo sapiens, UniProt P04798+P05177+P05181+P08684+P10632+P10635+P11509+P11712+P13584+P20813+P20815+P20853+P24462+P24903+P33260+P33261+P51589+P78329+P98187+Q02928+Q08477+Q16678+Q16696+Q5TCH4+Q6VVX0+Q7Z449+Q8TAV3+Q96SQ9+Q9HB55); assay: Metabolic stability in human hepatocytes assessed as CYP450-mediated compound metabolism by measuring half life; assay type: ADME, cell-based, Hepatocyte
[5] = Permeability across basal to apical side in human Caco-2 cells; assay type: ADME, cell-based; conditions: read-out: permeability
[6] = AUC in mouse at 0.5 mg/kg, iv; assay type: ADME, organism-based; design: dose 0.5 mg/kg; conditions: in vivo
[7] = AUC (0 to 24 hrs) in nu/nu mouse xenografted with human SK-OV-3 cells measured in tumor at 30 mg/kg, po qd by uHPLC-MS/MS analysis; assay type: ADME, organism-based; design: time < 24 hr, route oral, dose 30 mg/kg
[8] = Oral bioavailability in dog at 5 mg/kg; assay type: ADME, organism-based, Canis lupus familiaris; conditions: in vivo
[9] = biological target: T1, Indoleamine 2,3-dioxygenase 1; assay: Inhibition of IDO1 in IFNgamma/LPS-stimulated human whole blood preincubated for 4 hrs followed by IFNgamma/LPS stimulation and incubated for 18 hrs by Rapid-fire mass spectrometry analysis; assay type: tissue-based
[10] = AUC in rat at 6 mg/kg, po; assay type: ADME, organism-based; design: dose 6 mg/kg; conditions: in vivo
[11] = AUC in dog at 5 mg/kg, po; assay type: ADME, organism-based, Canis lupus familiaris; design: dose 5 mg/kg; conditions: in vivo
[12] = biological target: Indoleamine 2,3-dioxygenase 1 (Mus musculus) (UniProt P28776); assay: In vivo inhibition of IDO1 in nu/nu mouse xenografted with human SK-OV-3 cells assessed as reduction in kynurenine level at 10 mg/kg, po qd by HPLC-MS/MS analysis relative to control; assay type: functional, organism-based
Indoleamine 2,3-dioxygenase 1 (Mus musculus), sequence (P28776 whole entry, looked up): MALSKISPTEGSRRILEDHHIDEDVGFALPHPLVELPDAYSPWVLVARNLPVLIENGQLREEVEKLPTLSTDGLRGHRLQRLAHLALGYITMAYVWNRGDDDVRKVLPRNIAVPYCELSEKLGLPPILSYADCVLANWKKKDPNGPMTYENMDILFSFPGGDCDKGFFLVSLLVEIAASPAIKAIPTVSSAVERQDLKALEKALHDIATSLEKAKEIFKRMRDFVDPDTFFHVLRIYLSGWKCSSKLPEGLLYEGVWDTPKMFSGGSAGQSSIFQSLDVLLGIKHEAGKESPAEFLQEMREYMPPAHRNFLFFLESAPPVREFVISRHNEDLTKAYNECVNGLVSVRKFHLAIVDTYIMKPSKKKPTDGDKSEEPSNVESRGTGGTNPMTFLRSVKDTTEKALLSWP

Homo sapiens = species: Homo sapiens; assay: Inhibition of sodium channel (unknown origin) at 10 uM and 1 to 4 Hz by patch clamp method relative to control
alpha7 nAChR = alpha7 nAChR (Homo sapiens, UniProt P36544); assay: Inhibition of alpha7 nAChR (unknown origin) relative to control; conditions: read-out: Imax
alpha7 nAChR, sequence (P36544 whole entry): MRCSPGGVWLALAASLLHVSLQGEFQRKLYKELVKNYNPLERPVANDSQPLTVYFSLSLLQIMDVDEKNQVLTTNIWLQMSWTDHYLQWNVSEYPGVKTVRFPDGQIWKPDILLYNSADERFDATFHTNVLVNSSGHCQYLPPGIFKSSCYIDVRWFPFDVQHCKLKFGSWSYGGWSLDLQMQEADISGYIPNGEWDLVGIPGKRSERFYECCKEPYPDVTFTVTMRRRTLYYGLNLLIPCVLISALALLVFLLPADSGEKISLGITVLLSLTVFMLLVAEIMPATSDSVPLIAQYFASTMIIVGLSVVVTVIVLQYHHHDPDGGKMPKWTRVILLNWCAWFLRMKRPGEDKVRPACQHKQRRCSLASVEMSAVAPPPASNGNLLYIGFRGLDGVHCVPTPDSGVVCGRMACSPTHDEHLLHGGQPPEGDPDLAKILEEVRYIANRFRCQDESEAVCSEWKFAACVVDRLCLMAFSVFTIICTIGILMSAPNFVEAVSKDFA

[13] = AUC in dog at 1 mg/kg, iv; assay type: ADME, organism-based, Canis lupus familiaris; design: dose 1 mg/kg; conditions: in vivo
[14] = Metabolic stability in rat hepatocytes assessed as UGT-mediated compound glucuronidation by measuring half life; assay type: ADME, cell-based, Hepatocyte
[15] = Inhibition of calcium channel (unknown origin) by patch clamp method; design: species or system Homo sapiens
Cytochrome P450 2C9 = Cytochrome P450 2C9 (Homo sapiens, UniProt P11712); assay: Inhibition of human CYP2C9; assay type: ADME
Cytochrome P450 2C9, sequence (P11712 whole entry): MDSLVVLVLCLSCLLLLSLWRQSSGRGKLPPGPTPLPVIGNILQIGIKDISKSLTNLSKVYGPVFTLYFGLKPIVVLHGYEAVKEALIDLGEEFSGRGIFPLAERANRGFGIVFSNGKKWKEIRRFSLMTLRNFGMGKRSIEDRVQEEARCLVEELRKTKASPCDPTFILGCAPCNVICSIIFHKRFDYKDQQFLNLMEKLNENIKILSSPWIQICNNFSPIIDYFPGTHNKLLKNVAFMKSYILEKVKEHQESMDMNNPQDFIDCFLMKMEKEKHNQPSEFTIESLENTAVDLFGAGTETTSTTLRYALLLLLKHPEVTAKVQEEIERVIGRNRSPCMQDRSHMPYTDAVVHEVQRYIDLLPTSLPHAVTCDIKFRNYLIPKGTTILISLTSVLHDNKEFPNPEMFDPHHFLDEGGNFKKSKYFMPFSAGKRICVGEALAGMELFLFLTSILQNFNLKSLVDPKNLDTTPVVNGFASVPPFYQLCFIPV

[16] = biological target: Neuronal acetylcholine receptor subunit alpha-7 (Homo sapiens, UniProt P36544); assay: Inhibition of alpha7 nAChR (unknown origin)
Neuronal acetylcholine receptor subunit alpha-7, sequence (P36544 whole entry): as the sequence (P36544 whole entry) above

[17] = AUC in cynomolgus monkey at 1 mg/kg, iv; assay type: ADME, organism-based, Macaca fascicularis; design: dose 1 mg/kg; conditions: in vivo
[18] = Volume of distribution at steady state in cynomolgus monkey at 1 mg/kg, iv; assay type: ADME, organism-based, Macaca fascicularis; conditions: in vivo
Cytochrome P450 2C8 = biological target: T2, Cytochrome P450 2C8 (Homo sapiens, UniProt P10632); assay: Inhibition of human CYP2C8; assay type: ADME
T2 sequence (P10632 whole entry): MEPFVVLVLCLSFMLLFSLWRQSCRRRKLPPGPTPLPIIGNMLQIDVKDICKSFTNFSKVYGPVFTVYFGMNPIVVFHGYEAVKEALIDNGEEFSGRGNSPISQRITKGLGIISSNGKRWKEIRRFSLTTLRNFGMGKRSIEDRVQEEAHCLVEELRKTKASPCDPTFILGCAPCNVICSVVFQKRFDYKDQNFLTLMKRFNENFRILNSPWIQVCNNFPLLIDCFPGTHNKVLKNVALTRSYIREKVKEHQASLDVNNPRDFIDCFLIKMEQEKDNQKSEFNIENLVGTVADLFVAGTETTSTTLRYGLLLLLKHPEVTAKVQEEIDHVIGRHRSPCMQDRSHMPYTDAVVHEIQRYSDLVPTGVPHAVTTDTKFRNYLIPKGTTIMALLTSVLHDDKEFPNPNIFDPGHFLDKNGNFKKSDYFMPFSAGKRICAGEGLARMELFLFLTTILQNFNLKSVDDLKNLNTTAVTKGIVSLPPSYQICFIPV

[19] = Protein binding in human plasma assessed as free fraction; assay type: ADME, cell-free
[20] = Half life in cynomolgus monkey at 1 mg/kg, iv; assay type: ADME, organism-based, Macaca fascicularis; conditions: in vivo
[21] = biological target: Indoleamine 2,3-dioxygenase 1 (Mus musculus, UniProt P28776); assay: Inhibition of IDO1 in IFNgamma-stimulated mouse M109 cells preincubated for 2 hrs followed by IFNgamma stimulation and measured after 18 hrs by; assay type: cell-based
Indoleamine 2,3-dioxygenase 1 (Mus musculus, UniProt P28776), sequence (P28776 whole entry): as the sequence (P28776 whole entry, looked up) above

[22] = Metabolic stability in cynomolgus monkey hepatocytes assessed as CYP450-mediated compound metabolism by measuring half life; assay type: ADME, cell-based, Macaca fascicularis, Hepatocyte
[23] = biological target: Indoleamine 2,3-dioxygenase 1 (Mus musculus) (UniProt P28776); assay: In vivo inhibition of IDO1 in nu/nu mouse xenografted with human SK-OV-3 cells assessed as reduction in kynurenine level at 30 mg/kg, po qd by HPLC-MS/MS analysis relative to control; assay type: functional, organism-based
[24] = Permeability across apical to basal side in human Caco-2 cells; assay type: ADME, cell-based; conditions: read-out: permeability
[25] = AUC in mouse at 6 mg/kg, po; assay type: ADME, organism-based; design: dose 6 mg/kg; conditions: in vivo
[26] = Oral bioavailability in mouse at 6 mg/kg; assay type: ADME, organism-based; conditions: in vivo
[27] = biological target: Acetylcholine receptor subunit alpha (Homo sapiens, UniProt P02708); assay: Inhibition of alpha1 nAChR (unknown origin)
Acetylcholine receptor subunit alpha, sequence (P02708 whole entry): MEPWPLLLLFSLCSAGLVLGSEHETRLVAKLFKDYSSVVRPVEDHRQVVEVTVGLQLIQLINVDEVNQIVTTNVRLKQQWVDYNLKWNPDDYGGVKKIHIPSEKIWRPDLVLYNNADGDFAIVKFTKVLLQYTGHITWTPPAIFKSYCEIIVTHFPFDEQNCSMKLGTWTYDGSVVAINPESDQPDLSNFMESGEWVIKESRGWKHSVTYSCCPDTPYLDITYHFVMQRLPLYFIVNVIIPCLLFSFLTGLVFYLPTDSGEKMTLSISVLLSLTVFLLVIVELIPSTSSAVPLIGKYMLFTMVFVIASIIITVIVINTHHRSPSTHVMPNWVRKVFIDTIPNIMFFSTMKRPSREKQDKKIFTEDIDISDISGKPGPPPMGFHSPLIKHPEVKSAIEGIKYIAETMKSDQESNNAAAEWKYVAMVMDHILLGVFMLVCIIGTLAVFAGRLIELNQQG

[28] = Metabolic stability in rat hepatocytes assessed as CYP450-mediated compound metabolism by measuring half life; assay type: ADME, cell-based, Hepatocyte
[29] = Metabolic stability in mouse hepatocytes assessed as CYP450-mediated compound metabolism by measuring half life; assay type: ADME, cell-based, Hepatocyte
[30] = Metabolic stability in dog hepatocytes assessed as UGT-mediated compound glucuronidation by measuring half life; assay type: ADME, cell-based, Canis lupus familiaris, Hepatocyte
[31] = Toxicity in rat assessed as effect on cardiovascular system by telemetry; conditions: in vivo
[32] = AUC (0 to 24 hrs) in nu/nu mouse xenografted with human SK-OV-3 cells measured in tumor at 10 mg/kg, po qd by uHPLC-MS/MS analysis; assay type: ADME, organism-based; design: time < 24 hr, route oral, dose 10 mg/kg

hERG, sequence (Q12809 whole entry): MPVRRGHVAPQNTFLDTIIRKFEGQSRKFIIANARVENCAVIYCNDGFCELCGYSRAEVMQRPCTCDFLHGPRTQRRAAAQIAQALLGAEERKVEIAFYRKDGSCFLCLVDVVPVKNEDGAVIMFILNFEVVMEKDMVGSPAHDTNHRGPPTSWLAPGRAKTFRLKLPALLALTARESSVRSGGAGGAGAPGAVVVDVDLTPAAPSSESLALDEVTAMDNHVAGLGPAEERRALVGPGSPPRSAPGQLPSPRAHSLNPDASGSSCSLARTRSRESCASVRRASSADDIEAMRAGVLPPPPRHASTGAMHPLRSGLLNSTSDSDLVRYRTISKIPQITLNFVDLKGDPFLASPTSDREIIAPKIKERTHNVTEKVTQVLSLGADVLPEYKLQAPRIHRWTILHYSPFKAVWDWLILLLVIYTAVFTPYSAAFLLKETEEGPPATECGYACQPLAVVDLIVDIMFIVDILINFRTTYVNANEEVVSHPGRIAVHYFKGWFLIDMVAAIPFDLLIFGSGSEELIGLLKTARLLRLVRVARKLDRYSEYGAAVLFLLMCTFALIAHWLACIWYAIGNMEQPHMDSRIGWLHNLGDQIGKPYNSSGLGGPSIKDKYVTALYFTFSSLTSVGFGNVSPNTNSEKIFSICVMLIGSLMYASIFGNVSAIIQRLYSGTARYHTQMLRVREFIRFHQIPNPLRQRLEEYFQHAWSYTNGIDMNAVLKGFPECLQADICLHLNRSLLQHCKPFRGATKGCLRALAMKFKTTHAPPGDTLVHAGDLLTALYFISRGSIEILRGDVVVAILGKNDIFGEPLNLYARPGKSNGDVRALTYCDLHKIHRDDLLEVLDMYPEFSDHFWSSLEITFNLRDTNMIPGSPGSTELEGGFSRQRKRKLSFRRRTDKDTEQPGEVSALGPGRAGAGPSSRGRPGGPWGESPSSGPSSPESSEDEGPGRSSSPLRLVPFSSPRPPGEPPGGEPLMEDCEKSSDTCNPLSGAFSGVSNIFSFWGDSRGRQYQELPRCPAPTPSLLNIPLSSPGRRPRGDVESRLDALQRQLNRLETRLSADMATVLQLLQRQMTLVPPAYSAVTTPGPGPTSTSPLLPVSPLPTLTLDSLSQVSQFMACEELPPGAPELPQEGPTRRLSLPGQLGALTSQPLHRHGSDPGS

Molecule `C[C@@H](NC(=O)c1ccc(Cl)cc1)[C@H]1CC[C@@H](c2ccnc3ccc(F)cc32)CC1` has a t1/2 [1] of 4 min, an inhibition at 10 µM (hERG) of 87% and an IC50 [2] of 2 nM. The Vdss [3] was 3.87 L/kg, the t1/2 [4] was 8 min and the half-life (Cytochrome P450) was 14 min. For the same molecule, the Papp B→A [5] was 5.5 ×10⁻⁶ cm/s, the AUC [6] was 0.69 µM·h and the AUC at 24 h [7] was 61 µM·h. For the same molecule, the bioavailability [8] was 39%, the IC50 [9] was 25 nM and the AUC [10] was 28.2 µM·h. For the same molecule, the AUC [11] was 17.4 µM·h, the inhibition [12] was 58% and the inhibition (Homo sapiens) was under 20%. For the same molecule, the Emax (alpha7 nAChR) was 20%, the AUC [13] was 8.7 µM·h and the half-life [14] was 93 min. It also gave an IC50 [15] of over 25000 nM, an IC50 (Cytochrome P450 2C9) of 740 nM and an IC50 [16] of over 6000 nM. It also gave an AUC [17] of 3.4 µM·h, a Vdss [18] of 1 L/kg and an IC50 (Cytochrome P450 2C8) of 1390 nM. The Fu [19] was under 0.3%, the t1/2 [20] was 2 min and the IC50 [21] was 2 nM. It also gave a half-life [22] of 2 min, an inhibition [23] of 59% and a Papp A→B [24] of 8.8 ×10⁻⁶ cm/s. The AUC [25] was 12.6 µM·h, the F [26] was 152% and the IC50 [27] was 12300 nM. The half-life [28] was 10 min, the half-life [29] was 4 min and the half-life [30] was 33 min. For the same molecule, the Activity [31] was “Non-Toxic” and the AUC at 24 h [32] was 21.1 µM·h.
